According to ChEMBL document CHEMBL3879901, “Substituted isoquinolin-1(2H)-ones, and methods of use thereof” (2012):

What was measured:
PI3K p110 beta/p85 alpha = PI3K p110 beta/p85 alpha (Homo sapiens, UniProt P42338); assay: Inhibition of N-terminal His6-tagged recombinant full-length human p110beta/untagged recombinant full length p85alpha expressed in baculovirus infected Sf21 cells using phosphatidylinositol as substrate in presence of gamma-32P-ATP after 5 mins by thin layer chromatographic method
[1] = molecular target: Phosphatidylinositol 4,5-bisphosphate 3-kinase catalytic subunit gamma isoform (Homo sapiens, UniProt P48736); assay: Inhibition of recombinant human C-terminal His6-tagged p110gamma expressed in insect cells using phosphatidylinositol as substrate in presence of gamma-32P-ATP after 5 mins by thin layer chromatographic method
[2] = Antiproliferative activity against Balb/c mouse splenic B cells preincubated for 30 mins followed by LPS or F(ab')2 donkey anti-mouse IgM and recombinant mouse IL4 stimulation measured after 72 hrs by Alamar Blue reduction assay; type: functional, cell-based
[3] = molecular target: PI3-kinase p110-delta/p85-alpha (Homo sapiens, UniProt O00329); assay: Inhibition of N-terminal His6-tagged recombinant full-length human p110delta/untagged recombinant full length p85alpha expressed in baculovirus infected Sf21 cells using phosphatidylinositol as substrate in presence of gamma-32P-ATP after 5 mins by thin layer chromatographic method
[4] = molecular target: PI3-kinase p110-alpha/p85-alpha (Homo sapiens, UniProt P42336); assay: Inhibition of N-terminal His6-tagged recombinant full-length human p110alpha/untagged recombinant full length human p85alpha expressed in baculovirus infected Sf21 cells using phosphatidylinositol as substrate in presence of gamma-32P-ATP after 5 mins by thin layer chromatographic method
Chain of PI3-kinase p110-alpha/p85-alpha (P27986 whole entry): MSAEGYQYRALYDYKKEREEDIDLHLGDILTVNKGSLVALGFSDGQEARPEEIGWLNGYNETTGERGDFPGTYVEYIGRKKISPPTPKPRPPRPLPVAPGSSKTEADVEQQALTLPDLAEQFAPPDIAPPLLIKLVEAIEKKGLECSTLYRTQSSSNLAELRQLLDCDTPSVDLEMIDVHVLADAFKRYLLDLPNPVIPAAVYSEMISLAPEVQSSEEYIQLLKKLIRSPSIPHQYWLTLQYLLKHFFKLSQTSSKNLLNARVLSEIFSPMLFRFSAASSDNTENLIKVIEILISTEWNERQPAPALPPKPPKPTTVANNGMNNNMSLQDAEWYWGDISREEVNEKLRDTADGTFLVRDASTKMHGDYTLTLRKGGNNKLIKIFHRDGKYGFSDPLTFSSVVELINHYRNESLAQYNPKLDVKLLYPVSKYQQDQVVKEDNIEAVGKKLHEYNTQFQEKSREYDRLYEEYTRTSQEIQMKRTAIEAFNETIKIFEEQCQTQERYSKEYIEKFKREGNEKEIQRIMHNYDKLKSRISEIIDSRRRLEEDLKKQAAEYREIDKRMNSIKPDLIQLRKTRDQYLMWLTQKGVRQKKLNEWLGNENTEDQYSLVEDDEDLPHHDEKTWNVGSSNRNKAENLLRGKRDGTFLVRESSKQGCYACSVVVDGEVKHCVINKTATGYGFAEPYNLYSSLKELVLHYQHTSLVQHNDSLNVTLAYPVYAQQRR
Chain of PI3-kinase p110-alpha/p85-alpha (P42336 whole entry): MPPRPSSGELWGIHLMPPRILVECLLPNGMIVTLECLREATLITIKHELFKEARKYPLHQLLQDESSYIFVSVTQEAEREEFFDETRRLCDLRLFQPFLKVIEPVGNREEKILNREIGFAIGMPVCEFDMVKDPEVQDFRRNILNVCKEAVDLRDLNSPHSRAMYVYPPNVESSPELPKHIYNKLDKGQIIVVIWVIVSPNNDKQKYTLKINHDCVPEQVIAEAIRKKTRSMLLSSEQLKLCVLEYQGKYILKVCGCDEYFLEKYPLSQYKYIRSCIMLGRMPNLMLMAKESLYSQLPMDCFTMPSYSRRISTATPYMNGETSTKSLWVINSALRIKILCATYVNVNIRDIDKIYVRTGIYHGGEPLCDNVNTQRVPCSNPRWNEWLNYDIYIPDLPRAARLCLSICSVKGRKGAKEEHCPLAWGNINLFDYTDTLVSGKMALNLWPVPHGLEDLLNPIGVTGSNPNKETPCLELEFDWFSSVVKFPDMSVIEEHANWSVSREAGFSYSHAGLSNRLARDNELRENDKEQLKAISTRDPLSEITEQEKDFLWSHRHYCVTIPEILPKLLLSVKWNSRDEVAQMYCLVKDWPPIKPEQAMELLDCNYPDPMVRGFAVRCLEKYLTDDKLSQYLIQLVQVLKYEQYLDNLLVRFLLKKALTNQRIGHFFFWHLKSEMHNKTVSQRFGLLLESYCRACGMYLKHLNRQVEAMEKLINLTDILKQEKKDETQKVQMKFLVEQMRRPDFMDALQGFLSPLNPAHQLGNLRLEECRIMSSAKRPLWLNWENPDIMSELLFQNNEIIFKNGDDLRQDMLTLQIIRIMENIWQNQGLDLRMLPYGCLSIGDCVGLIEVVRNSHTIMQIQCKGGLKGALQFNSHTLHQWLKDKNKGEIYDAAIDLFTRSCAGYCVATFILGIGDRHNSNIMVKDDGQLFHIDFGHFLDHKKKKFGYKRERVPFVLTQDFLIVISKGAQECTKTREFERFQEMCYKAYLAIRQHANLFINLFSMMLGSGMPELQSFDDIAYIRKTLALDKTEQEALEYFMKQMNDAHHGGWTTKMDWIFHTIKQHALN

Chain of PI3-kinase p110-delta/p85-alpha (P27986 whole entry): as the sequence (P27986 whole entry) above
Chain of PI3-kinase p110-delta/p85-alpha (O00329 whole entry): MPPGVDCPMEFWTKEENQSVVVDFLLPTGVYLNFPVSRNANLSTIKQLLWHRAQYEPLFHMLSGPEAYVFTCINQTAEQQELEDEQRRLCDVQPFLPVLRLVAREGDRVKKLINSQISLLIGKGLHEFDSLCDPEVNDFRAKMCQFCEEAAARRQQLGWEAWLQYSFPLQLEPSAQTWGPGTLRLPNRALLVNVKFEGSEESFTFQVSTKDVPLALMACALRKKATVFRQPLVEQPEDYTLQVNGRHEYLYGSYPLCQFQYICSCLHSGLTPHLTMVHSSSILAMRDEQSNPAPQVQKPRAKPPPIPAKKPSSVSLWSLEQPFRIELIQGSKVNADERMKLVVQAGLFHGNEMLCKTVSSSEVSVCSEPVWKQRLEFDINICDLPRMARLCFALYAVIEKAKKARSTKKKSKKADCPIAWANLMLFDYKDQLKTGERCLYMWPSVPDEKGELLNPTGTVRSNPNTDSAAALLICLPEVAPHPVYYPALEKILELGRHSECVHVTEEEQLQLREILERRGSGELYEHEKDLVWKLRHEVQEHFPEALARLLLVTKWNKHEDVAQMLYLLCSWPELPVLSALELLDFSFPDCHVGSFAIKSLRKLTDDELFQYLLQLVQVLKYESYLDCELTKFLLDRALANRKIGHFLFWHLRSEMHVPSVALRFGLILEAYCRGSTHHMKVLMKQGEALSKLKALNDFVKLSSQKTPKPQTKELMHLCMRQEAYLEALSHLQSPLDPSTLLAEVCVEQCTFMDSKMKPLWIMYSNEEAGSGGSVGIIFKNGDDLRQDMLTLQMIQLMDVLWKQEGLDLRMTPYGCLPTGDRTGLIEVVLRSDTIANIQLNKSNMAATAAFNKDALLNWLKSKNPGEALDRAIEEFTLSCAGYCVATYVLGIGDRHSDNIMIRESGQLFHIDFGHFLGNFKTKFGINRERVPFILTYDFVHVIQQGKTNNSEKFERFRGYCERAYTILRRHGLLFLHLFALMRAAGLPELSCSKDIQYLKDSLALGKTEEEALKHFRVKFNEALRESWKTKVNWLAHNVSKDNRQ
Chain of PI3K p110 beta/p85 alpha (P27986 whole entry, canonical isoform): as the sequence (P27986 whole entry) above
Chain of PI3K p110 beta/p85 alpha (P42338 whole entry, canonical isoform): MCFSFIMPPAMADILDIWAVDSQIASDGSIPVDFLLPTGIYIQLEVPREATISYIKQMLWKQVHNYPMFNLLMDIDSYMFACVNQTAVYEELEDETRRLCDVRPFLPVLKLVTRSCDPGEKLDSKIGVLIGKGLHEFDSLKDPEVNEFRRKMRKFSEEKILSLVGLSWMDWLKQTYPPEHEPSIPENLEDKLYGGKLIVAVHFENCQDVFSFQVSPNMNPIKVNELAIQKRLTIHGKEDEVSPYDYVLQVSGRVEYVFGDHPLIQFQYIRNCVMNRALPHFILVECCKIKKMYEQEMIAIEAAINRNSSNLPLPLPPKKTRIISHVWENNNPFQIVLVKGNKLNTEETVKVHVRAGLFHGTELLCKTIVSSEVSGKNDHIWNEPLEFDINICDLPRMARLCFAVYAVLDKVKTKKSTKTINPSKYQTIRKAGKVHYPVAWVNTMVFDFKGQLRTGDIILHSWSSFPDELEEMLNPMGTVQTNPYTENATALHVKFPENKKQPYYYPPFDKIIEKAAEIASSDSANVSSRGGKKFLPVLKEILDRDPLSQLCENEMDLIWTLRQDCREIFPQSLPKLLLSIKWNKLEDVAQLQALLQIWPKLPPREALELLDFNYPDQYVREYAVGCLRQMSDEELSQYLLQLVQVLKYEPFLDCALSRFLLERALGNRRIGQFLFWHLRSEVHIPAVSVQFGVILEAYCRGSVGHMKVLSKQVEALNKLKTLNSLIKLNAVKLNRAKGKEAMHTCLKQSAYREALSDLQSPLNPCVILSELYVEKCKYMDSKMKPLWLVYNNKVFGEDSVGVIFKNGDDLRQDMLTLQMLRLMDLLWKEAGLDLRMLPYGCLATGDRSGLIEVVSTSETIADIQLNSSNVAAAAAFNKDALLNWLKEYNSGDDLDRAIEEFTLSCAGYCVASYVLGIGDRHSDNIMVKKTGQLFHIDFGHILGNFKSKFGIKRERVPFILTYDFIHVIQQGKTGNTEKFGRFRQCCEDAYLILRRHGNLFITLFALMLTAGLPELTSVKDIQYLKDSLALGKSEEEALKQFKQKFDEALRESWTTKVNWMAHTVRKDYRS
Chain of Phosphatidylinositol 4,5-bisphosphate 3-kinase catalytic subunit gamma isoform (P48736 whole entry, canonical isoform): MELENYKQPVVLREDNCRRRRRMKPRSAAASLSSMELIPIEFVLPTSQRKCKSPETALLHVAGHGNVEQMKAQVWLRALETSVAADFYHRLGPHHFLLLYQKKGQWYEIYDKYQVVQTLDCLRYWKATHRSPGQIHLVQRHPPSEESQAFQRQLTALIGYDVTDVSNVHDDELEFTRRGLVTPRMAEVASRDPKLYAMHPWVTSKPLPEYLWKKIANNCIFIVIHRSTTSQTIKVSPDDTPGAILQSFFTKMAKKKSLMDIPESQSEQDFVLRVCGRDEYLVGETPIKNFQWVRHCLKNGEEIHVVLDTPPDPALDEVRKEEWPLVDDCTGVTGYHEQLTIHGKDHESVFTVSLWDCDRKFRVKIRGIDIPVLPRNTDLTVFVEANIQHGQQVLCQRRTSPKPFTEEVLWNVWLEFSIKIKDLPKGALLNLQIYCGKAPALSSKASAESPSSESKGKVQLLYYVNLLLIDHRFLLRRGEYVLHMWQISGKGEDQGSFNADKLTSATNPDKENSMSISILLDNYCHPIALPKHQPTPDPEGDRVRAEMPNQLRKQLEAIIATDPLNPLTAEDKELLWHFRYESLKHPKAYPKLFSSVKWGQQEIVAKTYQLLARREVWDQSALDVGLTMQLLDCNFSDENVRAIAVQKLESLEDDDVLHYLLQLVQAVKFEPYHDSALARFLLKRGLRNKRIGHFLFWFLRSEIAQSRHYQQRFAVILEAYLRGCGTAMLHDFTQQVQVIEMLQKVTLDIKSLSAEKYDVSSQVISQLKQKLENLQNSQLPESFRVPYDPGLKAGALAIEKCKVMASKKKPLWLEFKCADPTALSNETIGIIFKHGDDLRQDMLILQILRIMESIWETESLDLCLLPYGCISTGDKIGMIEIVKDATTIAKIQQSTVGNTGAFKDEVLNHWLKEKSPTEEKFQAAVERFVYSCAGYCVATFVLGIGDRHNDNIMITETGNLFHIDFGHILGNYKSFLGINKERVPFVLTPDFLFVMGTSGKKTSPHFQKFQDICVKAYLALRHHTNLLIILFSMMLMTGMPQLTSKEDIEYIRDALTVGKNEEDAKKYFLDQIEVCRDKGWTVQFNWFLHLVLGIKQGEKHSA

Row | SMILES | IC50 (PI3K p110 beta/p85 alpha) [µM] | IC50 [1] [µM] | EC50 [2] [µM] | IC50 [3] [µM] | IC50 [4] [µM]
1 | Cc1cccc2cc(Cn3nc(-c4cc(O)cc(F)c4)c4c(N)ncnc43)n(C(C)C)c(=O)c12 | < 1 | < 1 | < 0.1 | < 0.1 | < 10
2 | Cc1cccc2cc(Cn3nc(C#C[C@@H](C)O)c4c(N)ncnc43)n(C(C)C)c(=O)c12 | < 10 | < 10 | < 1 | < 0.1 | > 10
3 | Cc1cccc2cc(Cn3nc(-c4ccc(F)c(O)c4)c4c(N)ncnc43)n(-c3ccccc3F)c(=O)c12 | > 10 | < 1 | < 1 | < 0.1 | > 10
4 | Cc1cccc2cc(Cn3nc(/C=C4/SC(=O)NC4=O)c4c(N)ncnc43)n(-c3ccccc3F)c(=O)c12 | < 10 | < 0.1 | < 0.1 | < 0.1 | < 10
5 | COc1ccccc1-n1c(Cn2nc(C#C[C@@H](C)O)c3c(N)ncnc32)cc2cccc(C)c2c1=O | > 10 | < 1 | < 1 | < 0.1 | > 10
6 | Cc1ccccc1-n1c(Cn2nc(-c3cn[nH]c3)c3c(N)ncnc32)cc2ccccc2c1=O | > 10 | < 10 | < 0.1 | < 1 | > 10
7 | Cc1ccccc1-n1c(Cn2nc(I)c3c(N)ncnc32)cc2cccc(F)c2c1=O | > 10 | < 10 | < 1 | < 1 | > 10
8 | Cc1cccnc1-n1c(Cn2nc(-c3cc(O)cc(F)c3)c3c(N)ncnc32)cc2ccccc2c1=O | > 10 | < 1 | < 0.1 | < 0.1 | > 10
9 | Cc1cccc2cc(Cn3nc(C#CCO)c4c(N)ncnc43)n(-c3ccccc3F)c(=O)c12 | > 10 | < 1 | < 1 | < 0.1 | > 10
10 | Cc1ccccc1-n1c(Cn2nc(C#C[C@@H](C)O)c3c(N)ncnc32)cc2cccc(F)c2c1=O | > 10 | > 10 | < 10 | < 1 | > 10
11 | Cc1cccc2cc(Cn3nc(C#C[C@@H](C)O)c4c(N)ncnc43)n(-c3ccccc3O)c(=O)c12 | > 10 | < 10 | < 1 | < 0.1 | > 10
12 | Cc1ccccc1-n1c(Cn2nc(C#CC3CC3)c3c(N)ncnc32)cc2cccc(C)c2c1=O | > 10 | < 1 | < 1 | < 1 | > 10
13 | COc1cccc(-c2nn(Cc3cc4cccc(C)c4c(=O)n3-c3ccccc3C)c3ncnc(N)c23)c1 | < 10 | < 1 | < 1 | < 1 | > 10
14 | Cc1ccccc1-n1c(Cn2nc(C#CCO)c3c(N)ncnc32)cc2cccc(C)c2c1=O | > 10 | < 1 | < 1 | < 0.1 | > 10
15 | Cc1cccc2cc(Cn3nc(Br)c4c(N)ncnc43)n(-c3ccccc3F)c(=O)c12 | > 10 | < 10 | < 1 | < 1 | > 10
16 | Cc1cccc2cc(Cn3nc(I)c4c(N)ncnc43)n(-c3ccccc3OCCN3CCOCC3)c(=O)c12 | > 10 | < 1 | < 1 | < 0.1 | > 10
17 | Cc1cccc2cc(Cn3nc(-c4cc(O)cc(F)c4)c4c(N)ncnc43)n(-c3ccccc3OCCN3CCOCC3)c(=O)c12 | < 10 | < 1 | < 0.1 | < 0.1 | < 10

Row | SMILES | IC50 (PI3K p110 beta/p85 alpha) [µM] | IC50 [1] [µM] | EC50 [2] [µM] | IC50 [3] [µM] | IC50 [4] [µM]
18 | Cc1ccccc1-n1c(Cn2nc(/C=C/C(N)=O)c3c(N)ncnc32)cc2cccc(C)c2c1=O | < 10 | < 0.1 | < 0.1 | < 0.1 | > 10
19 | Cc1cccc2cc(Cn3nc(-c4cn[nH]c4)c4c(N)ncnc43)n(-c3ccccc3Cl)c(=O)c12 | > 10 | < 1 | < 0.1 | 0.1 to 10 | > 10
20 | Cc1cccc2cc(Cn3nc(-c4cnn(CCO)c4)c4c(N)ncnc43)n(-c3ccccc3F)c(=O)c12 | > 10 | < 1 | 1 to 10 | < 0.1 | > 10
21 | Cc1ccccc1-n1c(Cn2nc(-c3cccc(Cl)c3)c3c(N)ncnc32)cc2cccc(C)c2c1=O | > 10 | < 1 | < 10 | < 10 | > 10
22 | Cc1cccnc1-n1c(Cn2nc(C#C[C@@H](C)O)c3c(N)ncnc32)cc2cccc(C)c2c1=O | > 10 | > 10 | < 1 | < 1 | > 10
23 | COc1cc(-c2nn(Cc3cc4cccc(C)c4c(=O)n3-c3ccccc3F)c3ncnc(N)c23)ccc1Cl | > 10 | < 1 | < 10 | < 10 | > 10
24 | Cc1cccc2cc(Cn3nc(-c4cccc(O)c4)c4c(N)ncnc43)n(-c3ccccc3F)c(=O)c12 | > 10 | < 1 | < 1 | < 0.1 | > 10
25 | Cc1cccnc1-n1c(Cn2nc(-c3cccc(O)c3)c3c(N)ncnc32)cc2cccc(C)c2c1=O | > 10 | < 1 | < 0.1 | < 0.1 | > 10
26 | Cc1cccc2cc(Cn3nc(I)c4c(N)ncnc43)n(C3CCC3)c(=O)c12 | > 10 | < 10 | < 1 | < 0.1 | > 10
27 | Cc1cccc2cc(Cn3nc(C#C[C@@H](C)O)c4c(N)ncnc43)n(-c3ccccc3Cl)c(=O)c12 | > 10 | < 1 | < 1 | < 0.1 | > 10
28 | COc1ccccc1-n1c(Cn2nc(I)c3c(N)ncnc32)cc2cccc(C)c2c1=O | > 10 | < 1 | < 1 | < 0.1 | > 10
29 | Cc1cccc2cc(Cn3nc(Cl)c4c(N)ncnc43)n(-c3ccccc3F)c(=O)c12 | > 10 | < 10 | < 1 | < 1 | > 10
30 | Cc1ccccc1-n1c(Cn2nc(C#C[C@@H](C)O)c3c(N)ncnc32)cc2cccc(C)c2c1=O | > 10 | < 10 | < 0.1 | < 0.1 | > 10
31 | Cc1cccc2cc(Cn3nc(-c4cccc(F)c4)c4c(N)ncnc43)n(-c3ccccc3F)c(=O)c12 | > 10 | < 10 | < 10 | < 10 | > 10
32 | Cc1ccccc1-n1c(Cn2nc(-c3cc(O)cc(F)c3)c3c(N)ncnc32)cc2cccc(F)c2c1=O | < 10 | < 1 | < 0.1 | < 0.1 | > 10
33 | Cc1ccccc1-n1c(Cn2nc(I)c3c(N)ncnc32)cc2cccc(C)c2c1=O | > 10 | 0.1 to 1 | 0.1 to 1 | < 0.1 | > 10
